{
  "source": "patent US20180250351A1",
  "about": "(priority 2015, published 2018)",
  "key": {"[1]": {"conditions": "animals; cited from earlier work"}, "[2]": {"conditions": "humans; absolute terms, curcumin alone at the non detectable level; cited from earlier work"}, "[3]": {"target": "T1, UDP-glucose dehydrogenase (UDP-GDH) (Homo sapiens, UniProt O60701)", "T1 sequence (O60701 1-494)": "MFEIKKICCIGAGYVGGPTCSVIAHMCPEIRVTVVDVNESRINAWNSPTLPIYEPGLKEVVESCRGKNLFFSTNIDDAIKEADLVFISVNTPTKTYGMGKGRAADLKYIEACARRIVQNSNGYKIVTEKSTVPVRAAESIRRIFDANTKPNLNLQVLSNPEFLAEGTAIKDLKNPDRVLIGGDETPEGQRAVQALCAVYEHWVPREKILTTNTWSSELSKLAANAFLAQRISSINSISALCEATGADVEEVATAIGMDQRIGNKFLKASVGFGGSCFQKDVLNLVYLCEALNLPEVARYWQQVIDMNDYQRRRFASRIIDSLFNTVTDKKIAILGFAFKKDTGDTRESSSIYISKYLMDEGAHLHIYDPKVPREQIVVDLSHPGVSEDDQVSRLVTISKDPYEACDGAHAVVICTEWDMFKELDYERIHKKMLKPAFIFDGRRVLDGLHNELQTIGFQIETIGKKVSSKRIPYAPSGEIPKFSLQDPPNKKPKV", "assay": "Spectrophotometric test of inhibition of UDP-glucose dehydrogenase", "assay_type": "biochemical", "conditions": "for type of inhibition of UDP-GDH: in relation to enzyme/substrate and cofactor NAD+; for IC50: 37° C., 340 nm", "method": "The UDP-GDH enzyme catalyses the oxidation of the UDP-glucose using the NAD+ as the oxidant agent, according to the following formula: […]\nUDP-glucose+2NAD++H2O→UDP-glucuronic acid+2NADH+2H+\nFor the spectrophotometric evaluation of the enzymatic activity the following reactive mix has been used:\nThe test has been done at 37° C. and monitored at 340 nm for 20 minutes.\nThe algae has thus been suspended in different concentrations (10-50-100 mg/ml) in distilled water on the one hand and in 100% ethanol on the other; then homogenized and afterwards centrifuged at 5000 rpm for 10 minutes. We have then checked through spectrophotometry the presence in the two extracts of the relevant components, verifying the presence of phycocyanins at 620 nm for the water extract and of carotenoids at 400 nm and chlorophyll at 664 nm for the ethanol extract."}, "[4]": {"conditions": "human, in vivo"}, "[5]": {"conditions": "curcumin dose 100 mg/kg (NPs) or 250 mg/kg (others); cited from earlier work"}},
  "note": "Where two headings read alike, the source gives them in different places.",
  "data": [
    {"compound": "O=C(/C=C/C=C/c1ccc2c(c1)OCO2)N1CCCCC1", "note": "[Piperine, piperine]", "values": [
      {"measurement": "plasma concentration increase of curcumin", "setting": "[1]", "value": 154, "unit": "%"},
      {"measurement": "plasma concentration increase of curcumin", "setting": "[2]", "value": 2000, "unit": "%"}
    ]},
    {"compound": "phycocyanobilin", "values": [
      {"measurement": "type of inhibition of UDP-GDH", "setting": "[3]", "value": "directly competitive"},
      {"measurement": "IC50", "setting": "[3]; purified pigment", "value": 2.7, "unit": "nM"}
    ]},
    {"compound": "COc1cc(/C=C/C(=O)CC(=O)/C=C/c2ccc(O)c(OC)c2)ccc1O", "note": "[curcumin alone, curcumin]", "values": [
      {"measurement": "time of absorption peak after ingestion", "setting": "[4]", "value": "approximately 15 min"},
      {"measurement": "time of peak after ingestion", "setting": "[4]", "value": "approximately 1 hour"},
      {"measurement": "AUC", "setting": "[5]", "value": 312, "unit": "ng·h/mL"},
      {"measurement": "Cmax", "setting": "[5]", "value": 90.3, "unit": "ng/mL"}
    ]},
    {"compound": "phycocyanin", "values": [
      {"measurement": "type of inhibition of UDP-GDH", "setting": "[3]", "value": "mixed type"},
      {"measurement": "IC50", "setting": "[3]; purified molecule", "value": 2400, "unit": "nM"}
    ]}
  ]
}
